Experimental data: PubChem BioAssay AID330 (DTP/NCI, 2004)
Several values for one entry are separate records, joined by “and”; a condition that tells them apart may be missing. Equal values may be shown once. Inconclusive results and toxic doses are left out. Rule for the calls: active = survival T/C of 150% or more; inactive = T/C below 125% in these data.

Tested on: P388 leukemia ip, CD2F1 mice, survival T/C
Assay: NCI In Vivo Anticancer Drug Screen. Data for tumor model P388 Leukemia (intraperitoneal) in CD2F1 (CDF1) mice
Conditions: endpoint: median survival time, higher = longer survival
Procedure, shortened: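 Mice carrying the transplanted tumor received test compound or vehicle. Survival was recorded in each group, and the value is the treated-group measurement divided by that of the vehicle-treated control group.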

[1] = dose: 50.0 mg/kg/injection, schedule: Q01DX005 (ip), vehicle: Klucel (hydroxypropylcellulose) (HPC)
[2] = dose: 100.0 mg/kg/injection, schedule: Q01DX005 (ip), vehicle: Klucel (hydroxypropylcellulose) (HPC)
[3] = dose: 200.0 mg/kg/injection, schedule: Q01DX005 (ip), vehicle: Klucel (hydroxypropylcellulose) (HPC)
[4] = dose: 50.0 mg/kg/injection, schedule: Q01DX009 (ip), vehicle: saline with Tween-80
[5] = dose: 100.0 mg/kg/injection, schedule: Q01DX009 (ip), vehicle: saline with Tween-80
[6] = dose: 200.0 mg/kg/injection, schedule: Q01DX009 (ip), vehicle: saline with Tween-80
[7] = dose: 60.0 mg/kg/injection, schedule: Q01DX005 (ip), vehicle: saline with Tween-80
[8] = dose: 120.0 mg/kg/injection, schedule: Q01DX005 (ip), vehicle: saline with Tween-80
[9] = dose: 240.0 mg/kg/injection, schedule: Q01DX005 (ip), vehicle: saline with Tween-80
[10] = dose: 25.0 mg/kg/injection, schedule: Q01DX005 (ip), vehicle: Klucel (hydroxypropylcellulose) (HPC)
[11] = dose: 10.0 mg/kg/injection, schedule: Q01DX009 (ip), vehicle: saline with Tween-80
[12] = dose: 100.0 mg/kg/injection, schedule: Q04DX003 (ip), vehicle: saline
[13] = dose: 200.0 mg/kg/injection, schedule: Q04DX003 (ip), vehicle: saline
[14] = dose: 400.0 mg/kg/injection, schedule: Q04DX003 (ip), vehicle: saline
[15] = dose: 25.0 mg/kg/injection, schedule: Q01DX009 (ip), vehicle: saline with Tween-80
[16] = dose: 50.0 mg/kg/injection, schedule: Q01DX005 (ip), vehicle: saline with Tween-80
[17] = dose: 100.0 mg/kg/injection, schedule: Q01DX005 (ip), vehicle: saline with Tween-80
[18] = dose: 200.0 mg/kg/injection, schedule: Q01DX005 (ip), vehicle: saline with Tween-80

Measured: T/C

O=C(Nc1cccnc1)c1ccc(CSc2ccc(Cl)cc2)o1
inactive: [1] 104 % of control | [2] 102 % of control | [3] 111 % of control

N#CC(C(=O)O)C1(c2ccccc2)CCCCC1 (stereo not drawn)
inactive: [4] 101 % of control | [5] 93 % of control | [6] 105 % of control

CC(C)n1nnc2c3ccccc3c3ccccc3c21
inactive: [7] 109 % of control | [8] 102 % of control | [9] 105 % of control

CC1=CC(C)(C)Nc2ccc(Cc3ccc4c(c3)C(C)=CC(C)(C)N4)cc21
inactive: [7] 101 % of control | [8] 94 % of control | [9] 95 % of control

O=C1C(=O)C2CC3(CC1N2Cc1ccccc1)OCCO3
inactive: dose: 8.75 mg/kg/injection, schedule: Q01DX005 (ip), vehicle: Klucel (hydroxypropylcellulose) (HPC) 109 % of control | dose: 17.5 mg/kg/injection, schedule: Q01DX005 (ip), vehicle: Klucel (hydroxypropylcellulose) (HPC) 104 % of control | dose: 35.0 mg/kg/injection, schedule: Q01DX005 (ip), vehicle: Klucel (hydroxypropylcellulose) (HPC) 110 % of control

C[N+](C)(C)c1ccc(Cc2ccc([N+](C)(C)C)cc2)cc1
inactive: dose: 6.3 micrograms/kg/injection, schedule: Q04DX002 (ip), vehicle: saline 107 % of control | dose: 12.5 micrograms/kg/injection, schedule: Q04DX002 (ip), vehicle: saline 111 % of control | dose: 25.0 micrograms/kg/injection, schedule: Q04DX002 (ip), vehicle: saline 103 % of control

COC(=O)N(C)C1=CCC(C(C)(C)C)CC1 (stereo not drawn)
inactive: [10] 103 % of control | [1] 106 % of control | [2] 107 % of control | [3] 105 % of control

O=C1C=C(C/C=C/c2ccccc2)C(C/C=C/c2ccccc2)C=C1O (stereo not drawn)
inactive: dose: 0.32 mg/kg/injection, schedule: Q01DX009 (ip), vehicle: saline with Tween-80 102 % of control | dose: 0.63 mg/kg/injection, schedule: Q01DX009 (ip), vehicle: saline with Tween-80 107 % of control | dose: 1.25 mg/kg/injection, schedule: Q01DX009 (ip), vehicle: saline with Tween-80 103 % of control | dose: 2.5 mg/kg/injection, schedule: Q01DX009 (ip), vehicle: saline with Tween-80 102 % of control and 93 % of control | [11] 94 % of control

CC1(C)OS(=O)(=O)C=C1Br
inactive: [12] 96 % of control | [13] 110 % of control | [14] 103 % of control

[O-]/[N+](=N/O)C(c1ccccc1)c1ccccc1
inactive: dose: 3.0 mg/kg/injection, schedule: Q01DX005 (ip), vehicle: Klucel + Tween-80 104 % of control | dose: 6.0 mg/kg/injection, schedule: Q01DX005 (ip), vehicle: Klucel + Tween-80 98 % of control | dose: 12.0 mg/kg/injection, schedule: Q01DX005 (ip), vehicle: Klucel + Tween-80 100 % of control | dose: 24.0 mg/kg/injection, schedule: Q01DX005 (ip), vehicle: Klucel + Tween-80 97 % of control

OCC1C=CCC1 (stereo not drawn)
inactive: dose: 6.25 mg/kg/injection, schedule: Q01DX009 (ip), vehicle: saline with Tween-80 99 % of control | dose: 12.5 mg/kg/injection, schedule: Q01DX009 (ip), vehicle: saline with Tween-80 101 % of control | [15] 90 % of control

Nc1ccc(F)cc1S
inactive: [5] 118 % of control

CC(=O)[C@H]1CC[C@H]2[C@@H]3CCC4=CC(=O)[C@H](C)C[C@]4(C)[C@H]3C(=O)C[C@]12C
inactive: dose: 100.0 mg/kg/injection, schedule: Q04DX003 (ip), vehicle: saline with Tween-80 100 % of control | dose: 200.0 mg/kg/injection, schedule: Q04DX003 (ip), vehicle: saline with Tween-80 95 % of control | dose: 400.0 mg/kg/injection, schedule: Q04DX003 (ip), vehicle: saline with Tween-80 95 % of control

CC(C)OCc1cn[nH]n1
inactive: [7] 100 % of control | [8] 97 % of control | [9] 103 % of control

CC(=O)OCC(=O)[C@@]1(O)CC[C@H]2[C@@H]3CCC4=CC(=O)[C@H](C)C[C@]4(C)[C@H]3[C@@H](O)C[C@@]21C
inactive: dose: 100.0 mg/kg/injection, schedule: Q04DX003 (ip), vehicle: other 100 % of control | dose: 200.0 mg/kg/injection, schedule: Q04DX003 (ip), vehicle: other 100 % of control | dose: 400.0 mg/kg/injection, schedule: Q04DX003 (ip), vehicle: other 115 % of control

CC(C)(CO)CS
inactive: [4] 99 % of control | [5] 100 % of control | [6] 97 % of control

O=C1CN(CCN2CCOCC2)CC(=O)N2CCCCN12
inactive: dose: 50.0 mg/kg/injection, schedule: Q01DX005 (ip), vehicle: saline 99 % of control | dose: 100.0 mg/kg/injection, schedule: Q01DX005 (ip), vehicle: saline 102 % of control | dose: 200.0 mg/kg/injection, schedule: Q01DX005 (ip), vehicle: saline 107 % of control

CC(=O)OCC(=O)[C@@]1(O)CC[C@H]2[C@@H]3C[C@H](C)C4=CC(=O)C=C[C@]4(C)[C@H]3[C@@H](O)C[C@@]21C
inactive: [5] 118 % of control | [6] 104 % of control | dose: 400.0 mg/kg/injection, schedule: Q01DX009 (ip), vehicle: saline with Tween-80 100 % of control

O=C(Nc1ccc(C2=NCCN2)c(O)c1)c1ccc(C(=O)Nc2ccc(C3=NCCN3)c(O)c2)cc1
inactive: [16] 99 % of control | [17] 103 % of control | [18] 107 % of control

O=Cc1ccc([N+](=O)[O-])s1
inactive: dose: 50.0 mg/kg/injection, schedule: Q01DX009 (ip), vehicle: saline 120 % of control

C/C(CC(N)=O)=C1\C(=O)NN(c2ccccc2)C1=O
inactive: [7] 108 % of control | [8] 110 % of control | [9] 114 % of control

Nc1nc(-c2cc(-c3cccc([N+](=O)[O-])c3Cl)nc(N)n2)cc(-c2cccc([N+](=O)[O-])c2Cl)n1
inactive: [7] 105 % of control | [8] 101 % of control | [9] 100 % of control

Cc1c(C)c(Cl)c(C)c(C)c1Cl
inactive: dose: 5.0 mg/kg/injection, schedule: Q01DX009 (ip), vehicle: saline with Tween-80 95 % of control | [11] 100 % of control | dose: 20.0 mg/kg/injection, schedule: Q01DX009 (ip), vehicle: saline with Tween-80 100 % of control

C=C(C)C(=NC(C)(C)C)Nc1ccccc1Cl
inactive: [15] 101 % of control and 90 % of control | [4] 100 % of control and 119 % of control and 93 % of control | [5] 111 % of control and 115 % of control and 90 % of control | [6] 115 % of control and 98 % of control

O=CCC(O)C(O)C(O)CO (stereo not drawn)
inactive: dose: 150.0 mg/kg/injection, schedule: Q01DX009 (ip), vehicle: saline 107 % of control | dose: 300.0 mg/kg/injection, schedule: Q01DX009 (ip), vehicle: saline 100 % of control and 104 % of control and 121 % of control | dose: 600.0 mg/kg/injection, schedule: Q01DX009 (ip), vehicle: saline 107 % of control and 112 % of control and 121 % of control | dose: 1200.0 mg/kg/injection, schedule: Q01DX009 (ip), vehicle: saline 103 % of control | dose: 2400.0 mg/kg/injection, schedule: Q01DX009 (ip), vehicle: saline 110 % of control and 91 % of control

COc1cc(O)c2c(-c3cc(O)ccc3O)cc(=O)oc2c1
inactive: dose: 60.0 mg/kg/injection, schedule: Q01DX005 (ip), vehicle: Klucel (hydroxypropylcellulose) (HPC) 94 % of control | dose: 120.0 mg/kg/injection, schedule: Q01DX005 (ip), vehicle: Klucel (hydroxypropylcellulose) (HPC) 88 % of control | dose: 240.0 mg/kg/injection, schedule: Q01DX005 (ip), vehicle: Klucel (hydroxypropylcellulose) (HPC) 96 % of control

COc1ccc(N2C(=O)c3ccc4c5ccc6c7c(ccc(c8ccc(c3c48)C2=O)c75)C(=O)NC6=O)cc1
inactive: dose: 12.5 mg/kg/injection, schedule: Q01DX005 (ip), vehicle: Klucel (hydroxypropylcellulose) (HPC) 89 % of control | [10] 90 % of control | [1] 90 % of control | [2] 90 % of control | [3] 89 % of control

O=C(O)c1ccccc1Nc1ccccc1[N+](=O)[O-]
inactive: dose: 50.0 mg/kg/injection, schedule: Q04DX003 (ip), vehicle: saline 94 % of control | [12] 99 % of control | [13] 102 % of control | [14] 105 % of control

CCCCNc1cc(-c2c(N)nc(N)nc2CC)ccc1[N+](=O)[O-]
inactive: [16] 101 % of control | [17] 101 % of control | [18] 94 % of control
